Assay results from article PMC6874057, “Synthesis of Chalcone Derivatives: Inducing Apoptosis of HepG2 Cells via Regulating Reactive Oxygen Species and Mitochondrial Pathway” (Frontiers in Pharmacology, 2019).

What was measured:
[1] = test system: adherent tumor cell lines (HepG2, A549 and Hela); test: MTT assay, summary over adherent tumor cell lines; assay type: cell-based; conditions: Homo sapiens; span of IC50 over compounds a11-a14 and adherent tumor cell lines; read-out: IC50 range over cell lines
Experimental: HeLa, A549, HepG2, HL-60, and WI-38 cell lines were incubated in DMEM solution containing 10% FBS for 48 h. The incubated tumor cells were seeded into 96-well plates (5 × 10^3 cells/well) to make them attach for 12 h. Afterwards, the cells were processed with the various concentrations of the synthetic compounds and 5-FU for 48 h. After removing the cell culture supernatant, 10 µl MTT (5 mg/ml) solution was dripped into the cells to generate a formazan product, which were dissolved by dimethyl sulfoxide (DMSO) 4 h later. Multifunction microplate reader (Bio-Rad Laboratories, Shanghai, China) was adopted to measure the absorbance at the wave length of 490 nm. The IC50 (the lowest drug concentration causing 50% of the tumor cells inhibition) was then calculated using GraphPad Prism Software (version 5.02) and used to indicate the cytotoxic effect of the target compounds on the selected tumor cells.

HepG2 cells [2] = test: DAPI staining, morphology of apoptotic cells; assay type: cell-based, human; conditions: various concentrations, 48 h; in words
Experimental: Firstly, HepG2 cells (3 × 10^5 cells/well) were seeded into six-well plates and kept to attach overnight. Then, the cells were incubated with a14 at different concentrations (0, 30, 50, and 70 µM) for 48 h, washed by ice-cold PBS solution and fixed with 4% paraformaldehyde for 10 min at room temperature. The cells was processed by DAPI (10 µg/ml) for 15 min in the dark, and the residual DAPI was rinsed two more times by ice-cold PBS. Then, the cells were transferred on a glass slide, fixed with a coverslip and placed under a fluorescence microscope (Motic China Group Co., Ltd., Shenzhen, China) to be observed and photographed at an excitation wavelength of 480/30× nm and the emission wavelength of 515 nm. Condensation of chromatin and fragmentation of nuclei could be applied to determine the apoptotic cells.

HepG2 cells [3] = test: Annexin V-Alexa Fluor 647/PI staining, flow cytometry; assay type: cell-based, human; conditions: 48 h
Experimental: HepG2 cells were seeded into six-well plates (3 × 10^5/well) overnight to allow the cells to grow adherently and then incubated with a14 at the concentrations of 0, 30, 40, 50, 60 or 70 µM for 48 h. In order to assess apoptosis, the double Annexin V-Alexa Fluor 647/PI (Beijing Solarbio Science & Technology Co., Ltd) immunofluorescence labeling method was used. After the cells were collected by centrifugation, 5 µl of Annexin V-Alexa Fluor 647 and 10 µl of PI solution (20 ug/ml) were added to each well. The cells were mixed and incubated at room temperature for 15 min in the dark and then mixed with 400 µl of PBS. Then, a Beckman Coulter flow cytometer (Beckman Coulter, Inc. California) was used to monitor the fluorescence. Ten thousand events were collected for each sample, and the data were analyzed via Flow Jo-V10 software.

HepG2 cells [4] = test: Cell cycle arrest by PI staining, flow cytometry; assay type: cell-based, human; conditions: for G2/M: 24 h
Experimental: HepG2 cells were seeded into six-well plates (3 × 10^5/well) overnight to allow the cells to grow adherently and then incubated with a14 at the concentrations of 0, 30, 40, 50, 60 or 70 µM for 24 and 48 h. After the incubation time, the cells were collected by centrifugation (1000 r/min) and fixed overnight with […] ethanol at 4°C, and then the cells were removed and washed three times with ice-cold PBS. Afterwards, the cells were added to RNase A (Beijing Solarbio Science & Technology Co., Ltd.), and incubated for 30 min at 37°C, after which PI (Beijing Solarbio Science & Technology Co., Ltd.) was added. The fluorescence was monitored by a Beckman Coulter flow cytometer (Beckman Coulter, Inc. California). Ten thousand events were collected per sample, and the data were analyzed using Modfit LT 5.0 software.

ROS level in HepG2 cells = test: ROS level by DCFH-DA probe, flow cytometry; assay type: cell-based, human; conditions: a14 50 µM, 8 h (0 h: 4351.6)
Experimental: HepG2 cells were seeded into six-well plates (3 × 10^5 cells/well) overnight to make the cells grow adherently and then incubated with a14 (50 µM) for 0, 3, 6, 8, 9, and 12 h. After that, the cells were added to 1 ml DCFH-DA (10 µM) and incubated for 30 min in the dark. After the cells were washed twice by the pre-cooled PBS, the cells were trypsinized and collected by centrifugation. The cells of the blank group were implemented the same experimental procedures, except for the process with a14. Besides, 5 mM N-acetyl-L-cysteine (NAC) was applied as anti-oxidative substance to prevent the oxidation of the cells, which could entirely block the production of ROS induced by a14. The generation levels of ROS were evaluated in fluorescence intensity (FL-1, 530 nm) by Beckman Coulter flow cytometer (Beckman Coulter, Inc. California). The data collected was analyzed using the CytExpert 2.0 software embedded in Beckman flow cytometry, and the histogram was plotted by Origin Pro8.

PARP in HepG2 cells = test: Western blot, PARP and cleaved PARP; assay type: cell-based, human; conditions: 48 h, compared to the control group; in words
Experimental: HepG2 cells (3 × 10^5 cells/well) were seeded into a six-well plate overnight for adherence, and then treated with a14 (0, 30, 40, 50, 60, and 70 µM) for 48 h. After the cells were collected by centrifugation, they were lysed with the radio immunoprecipitation assay (RIPA) buffer (high) containing 50 mM Tris (pH = 7.4), 150 mM NaCl, 1% TritonX-100, 1% sodium deoxycholate, 0.1% sodium dodecyl sulfate (SDS), 2 mM sodium pyrophosphate, 25 mM β-glycerophosphate, 1 mM ethylenediaminetetraacetic acid (EDTA), 1 mM Na3VO4, and 0.5 ug/ml leupeptin (Beijing Solarbio Science & Technology Co., Ltd.).The extract was then centrifuged at 12,000 rpm for 30 min and the total protein concentration was quantified using the BCA kit (Beijing Solarbio Science & Technology Co., Ltd.). The protein extracts were mixed with the SDS-PAGE protein loading buffer (Beijing Solarbio Science & Technology Co., Ltd.) and then boiled in 100°C water bath for 10 min. The gel was gelatinized using an SDS Gel Kit (Beijing Solarbio Science & Technology Co., Ltd.) and protein extracts were separated by protein SDS-polyacrylamide gel electrophoresis and transferred to Immobilon-NC Membrane (Beijing Solarbio Science & Technology Co., Ltd.). […]

IC50 [1]: 23.3 to 54.4 µM
SMILES: COc1cc(/C=C/C(=O)c2ccc(O)c(C(N)=O)c2)cc(OC)c1OC [a14]
morphological changes of the nucleus (DAPI) (HepG2 cells [2]): a large number of nuclear condensation and nuclear fragmentation
Early apoptosis (HepG2 cells [3]; a14 30 µM): 3.10%
Late apoptosis (HepG2 cells [3]; a14 30 µM): 9.45%
increase of percentage of early apoptosis compared with the untreated group (HepG2 cells [3]; a14 50 µM): 28.35%
increase of percentage of late apoptosis compared with the untreated group (HepG2 cells [3]; a14 50 µM): 13.51%
Early apoptosis (HepG2 cells [3]; a14 70 µM): 28.62%
Late apoptosis (HepG2 cells [3]; a14 70 µM): 32.89%
G2/M (HepG2 cells [4]; a14 30 µM): 19.07%
increase of percentage of G2/M compared with the untreated group (HepG2 cells [4]; a14 50 µM, 48 h): 73.82%
G2/M (HepG2 cells [4]; a14 70 µM): 79.57%
intracellular fluorescence intensity (DCFH-DA) (ROS level in HepG2 cells): 236197.3
expression level of PARP (PARP in HepG2 cells): decrease
level of cleaved PARP proteins (PARP in HepG2 cells): increase
